# Counter-ions that a name gives are not always drawn.
# Biological target: T1, hNET (Homo sapiens, UniProt P23975)
# T1 construct: expressed in transfected cells
# Test: Norepinephrine (NE) uptake assay in MDCK-Net6 cells stably transfected with human hNET
# Assay type: cell-based
# Settings: MDCK-Net6, read-out: % Inhibition @ 1 μM (hNET)
# Protocol: Cells were plated at 300,000/T75 flask and cells were split twice weekly. […] Cells were plated at 250,000 cells/T75 flask and split twice weekly.
# On day 1, cells were plated at 3,000 cells/well in growth medium and maintained in a cell incubator (37° C., 5% CO2). On day 2, growth medium was replaced with 200 μl of assay buffer (25 mM HEPES; 120 mM NaCl; 5 mM KCl; 2.5 mM CaCl2; 1.2 mM MgSO4; 2 mg/ml glucose (pH 7.4, 37° C.)) containing 0.2 mg/ml ascorbic acid and 10 μM pargyline. Plates containing cells with 200 μl of assay buffer were equilibrated for 10 minutes at 37° C. prior to addition of compounds. A stock solution of desipramine was prepared in DMSO (10 mM) and delivered to triplicate wells containing cells for a final test concentration of 1 μM. Data from these wells were used to define non-specific NE uptake (minimum NE uptake). Test compounds were prepared in DMSO (10 mM) and diluted in assay buffer according to test range (1 to 10,000 nM). Twenty-five microliters of assay buffer (maximum NE uptake) or test compound were added directly to triplicate wells containing cells in 200 μl of assay buffer. The cells in assay buffer with test compounds were incubated for 20 minutes at 37° C. To initiate the NE uptake, [^3H]NE diluted in assay buffer (120 nM final assay concentration) was delivered in 25 μl aliquots to each well and the plates were incubated for 5 minutes (37° C.). The reaction was terminated by decanting the supernatant from the plate. The plates containing cells were washed twice with 200 μl assay buffer (37° C.) to remove free radioligand. The plates were then inverted, left to dry for 2 minutes, then reinverted and air-dried for an additional 10 minutes. The cells were lysed in 25 μl of 0.25 N NaOH solution (4° C.), placed on a shake table and vigorously shaken for 5 minutes. After cell lysis, 75 μl of scintillation cocktail was added to each well and the plates were sealed with film tape. The plates were returned to the shake table and vigorously shaken for a minimum of 10 minutes to ensure adequate partitioning of organic and aqueous solutions. The plates were counted in a Wallac Microbeta counter (PerkinElmer) to collect the raw cpm data.
# For each experiment, a data stream of cpm values collected from the Wallac Microbeta counter was downloaded to a Microsoft Excel statistical application program. Calculations of EC50 values were made using the transformed-both-sides logistic dose response program written by Wyeth Biometrics Department.
# T1 sequence (P23975 whole entry): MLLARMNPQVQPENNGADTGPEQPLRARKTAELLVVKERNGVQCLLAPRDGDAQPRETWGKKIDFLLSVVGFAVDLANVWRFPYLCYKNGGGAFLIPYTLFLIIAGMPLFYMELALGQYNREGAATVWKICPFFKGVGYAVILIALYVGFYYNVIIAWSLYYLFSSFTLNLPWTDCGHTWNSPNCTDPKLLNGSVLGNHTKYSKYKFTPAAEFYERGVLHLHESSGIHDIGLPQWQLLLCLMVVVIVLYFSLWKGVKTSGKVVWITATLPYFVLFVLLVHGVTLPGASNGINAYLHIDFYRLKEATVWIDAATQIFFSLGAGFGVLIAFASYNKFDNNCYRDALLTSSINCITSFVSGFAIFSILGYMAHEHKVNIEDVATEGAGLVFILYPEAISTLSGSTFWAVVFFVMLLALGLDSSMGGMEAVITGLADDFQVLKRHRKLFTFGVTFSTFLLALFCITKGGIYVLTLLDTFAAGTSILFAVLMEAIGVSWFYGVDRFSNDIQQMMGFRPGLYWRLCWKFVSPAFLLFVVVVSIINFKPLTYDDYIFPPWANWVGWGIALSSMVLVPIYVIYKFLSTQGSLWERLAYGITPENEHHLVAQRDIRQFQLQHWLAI
row,SMILES,inhibition at 1 µM
1,"CNC[C@@H](O)[C@H](c1ccccc1C)n1ccc2ccccc21 (single isomer, unassigned) [Example 53, hydrochloride]",57.4%
2,"CNC[C@H](O)[C@@H](c1ccccc1C)n1ccc2ccccc21 (single isomer, unassigned) [Example 54, hydrochloride]",68.6%
3,"CNCC(O)[C@@H](c1ccccc1)n1ccc2ccccc21 (stereo in doubt) [Example 22, (1R,2S)-1-(1H-indol-1-yl)-3-(methylamino)-1-phenylpropan-2-ol hydrochloride]",83.8%
4,"CNCC(O)[C@H](c1ccccc1)n1ccc2ccccc21 (stereo in doubt) [Example 23, (1S,2R)-1-(1H-indol-1-yl)-3-(methylamino)-1-phenylpropan-2-ol hydrochloride]",89.7%
5,"CNC[C@@H](O)[C@H](c1cccc(Cl)c1)n1ccc2ccccc21 [Example 33, (1S,2R)-1-(3-chlorophenyl)-1-(1H-indol-1-yl)-3-(methylamino)propan-2-ol hydrochloride]",99.4%
6,"CNC[C@@H](O)[C@H](c1ccc(Cl)cc1)n1ccc2ccccc21 [Example 34, (1S,2R)-1-(4-chlorophenyl)-1-(1H-indol-1-yl)-3-(methylamino)propan-2-ol hydrochloride]",78.4%
7,"CNC[C@@H](O)[C@H](c1ccccc1Cl)n1ccc2ccccc21 [Example 38, (1S,2R)-1-(2-chlorophenyl)-1-(1H-indol-1-yl)-3-(methylamino)propan-2-ol hydrochloride]",71.9%
8,"CNC[C@@H](O)[C@H](c1cccc(Br)c1)n1ccc2ccccc21 [Example 43, (1S,2R)-1-(3-bromophenyl)-1-(1H-indol-1-yl)-3-(methylamino)propan-2-ol hydrochloride]",99%
9,"CNC[C@@H](O)[C@H](c1cccc(F)c1)n1ccc2ccccc21 [Example 47, (1S,2R)-1-(3-fluorophenyl)-1-(1H-indol-1-yl)-3-(methylamino)propan-2-ol hydrochloride]",99.9%
10,"CNC[C@@H](O)[C@H](c1ccccc1F)n1ccc2ccccc21 [Example 50, (1S,2R)-1-(2-fluorophenyl)-1-(1H-indol-1-yl)-3-(methylamino)propan-2-ol hydrochloride]",91.8%
11,"CNC[C@@H](O)[C@H](c1ccc(F)cc1)n1ccc2ccccc21 [Example 51, (1S,2R)-1-(4-fluorophenyl)-1-(1H-indol-1-yl)-3-(methylamino)propan-2-ol hydrochloride]",87%
12,"CNC[C@@H](O)[C@H](c1cccc(C)c1)n1ccc2ccccc21 [Example 52, (1S,2R)-1-(1H-indol-1-yl)-3-(methylamino)-1-(3-methylphenyl)propan-2-ol hydrochloride]",94.3%
13,"CNC[C@@H](O)[C@H](c1ccc(C)cc1)n1ccc2ccccc21 [Example 59, (1S,2R)-1-(1H-indol-1-yl)-3-(methylamino)-1-(4-methylphenyl)propan-2-ol hydrochloride]",93.2%

# Same assay, conditions: hydrochloride, 1 µM
row,SMILES,% Inhibition @ 1 μM (hNET)
1,"CNC[C@H](O)[C@H](c1ccccc1)n1ccc2ccccc21 (stereo in doubt) [Example 30, (1S,2S)-1-(1H-indol-1-yl)-3-(methylamino)-1-phenylpropan-2-ol hydrochloride]",79.7%
2,"CNC[C@@H](O)[C@@H](c1ccccc1)n1ccc2ccccc21 [Example 29, (1R,2R)-1-(1H-indol-1-yl)-3-(methylamino)-1-phenylpropan-2-ol hydrochloride]",89.5%

# Same assay, conditions: test compound 1 μM; [3H]NE uptake, MDCK-Net6 cells; read-out: % Inhibition @ 1 μM (hNET)
row,SMILES,inhibition at 1 µM
1,"CNC[C@@H](O)[C@H](c1ccc(OC(F)(F)F)cc1)n1ccc2ccccc21 (single isomer, unassigned) [Example 40, hydrochloride]",57.6%
2,"CNC[C@H](O)[C@@H](c1ccc(OC(F)(F)F)cc1)n1ccc2ccccc21 (single isomer, unassigned) [Example 41, hydrochloride]",32.4%
3,"OC(CNC1CC1)C(c1cccc(F)c1)n1ccc2ccccc21 (stereo in doubt) [Example 111, (1S,2R)-3-(cyclopropylamino)-1-(3-fluorophenyl)-1-(1H-indol-1-yl)propan-2-ol hydrochloride]",42.7%
4,"CN1CCN(C[C@H](O)[C@@H](c2ccccc2)n2ccc3ccccc32)CC1 [Example 1, 1RS,2SR)-1-(1H-indol-1-yl)-3-(4-methylpiperazin-1-yl)-1-phenyl propan-2-ol dihydrochloride]",4.6%
5,"CNC[C@@H](O)[C@H](c1cccc(OC(F)(F)F)c1)n1ccc2ccccc21 [Example 35, (1S,2R)-1-(1H-indol-1-yl)-3-(methylamino)-1-[3-(trifluoromethoxy)phenyl]propan-2-ol hydrochloride]",94.3%
6,"CNC[C@@H](O)[C@H](c1ccccc1OC(F)(F)F)n1ccc2ccccc21 [Example 36, (1S,2R)-1-(1H-indol-1-yl)-3-(methylamino)-1-[2-(trifluoromethoxy)phenyl]propan-2-ol hydrochloride]",82.3%
7,"CNC[C@H](O)[C@@H](c1ccccc1OC(F)(F)F)n1ccc2ccccc21 [Example 37, (1R,2S)-1-(1H-indol-1-yl)-3-(methylamino)-1-[2-(trifluoromethoxy)phenyl]propan-2-ol hydrochloride]",21.4%
8,"NCC[C@@H](O)[C@H](c1cccc(Cl)c1)n1ccc2ccccc21 [Example 42, (1S,2R)-4-amino-1-(3-chlorophenyl)-1-(1H-indol-1-yl)butan-2-ol hydrochloride]",95.7%
9,"CNC[C@@H](O)[C@H](c1cccc(C#N)c1)n1ccc2ccccc21 [Example 44, 3-[(1S,2R)-2-hydroxy-1-(1H-indol-1-yl)-3-(methylamino)propyl]benzonitrile hydrochloride]",98.2%
10,"CNC[C@@H](O)[C@H](c1cccc(F)c1)n1cc(-c2cccc(C)c2)c2ccccc21 [Example 48, (1S,2R)-1-(3-fluorophenyl)-3-(methylamino)-1-[3-(3-methylphenyl)-1H-indol-1-yl]propan-2-ol hydrochloride]",96.6%
11,"CNC[C@@H](O)[C@H](c1ccc(F)cc1)n1cc(C)c2ccccc21 [Example 49, (1S,2R)-1-(4-fluorophenyl)-3-(methylamino)-1-(3-methyl-1H-indol-1-yl)propan-2-ol hydrochloride]",101%
12,"CCNC[C@@H](O)[C@H](c1cccc(F)c1)n1ccc2ccccc21 [Example 55, (1S,2R)-3-(ethylamino)-1-(3-fluorophenyl)-1-(1H-indol-1-yl)propan-2-ol hydrochloride]",61.1%
13,"O[C@H](CN1CCOCC1)[C@H](c1cccc(F)c1)n1ccc2ccccc21 [Example 56, (1S,2R)-1-(3-fluorophenyl)-1-(1H-indol-1-yl)-3-morpholin-4-ylpropan-2-ol hydrochloride]",12.3%
14,"CCCNC[C@@H](O)[C@H](c1cccc(F)c1)n1ccc2ccccc21 [Example 57, (1S,2R)-1-(3-fluorophenyl)-1-(1H-indol-1-yl)-3-(propylamino)propan-2-ol hydrochloride]",17.5%
15,"CN1CCN(C[C@@H](O)[C@H](c2cccc(F)c2)n2ccc3ccccc32)CC1 [Example 58, (1S,2R)-1-(3-fluorophenyl)-1-(1H-indol-1-yl)-3-(4-methylpiperazin-1-yl)propan-2-ol dihydrochloride]",26.5%
